Patent publication US20250019371A1, “SMALL-MOLECULAR INHIBITORS FOR THE BETA-CATENIN/ B-CELL LYMPHOMA 9 PROTEIN-PROTEIN INTERACTION” (H. LEE MOFFITT CANCER CENTER AND RESEARCH INSTITUTE, INC., priority 2021, published 2025)
Where two headings read alike, the source gives them in different places.

Tests used:
β-catenin/BCL9 PPI = target: T1, β-catenin/BCL9 PPI (Homo sapiens, UniProt P35222); assay: AlphaScreen competitive inhibition assay of β-catenin/BCL9 PPI; format: binding; conditions: for AlphaScreen inhibitory activity in words: SAR comparison
T1 construct: Full-length β-catenin (residues 1-781); host or cells: E. coli BL21 DE3
T1 sequence (P35222 1-781): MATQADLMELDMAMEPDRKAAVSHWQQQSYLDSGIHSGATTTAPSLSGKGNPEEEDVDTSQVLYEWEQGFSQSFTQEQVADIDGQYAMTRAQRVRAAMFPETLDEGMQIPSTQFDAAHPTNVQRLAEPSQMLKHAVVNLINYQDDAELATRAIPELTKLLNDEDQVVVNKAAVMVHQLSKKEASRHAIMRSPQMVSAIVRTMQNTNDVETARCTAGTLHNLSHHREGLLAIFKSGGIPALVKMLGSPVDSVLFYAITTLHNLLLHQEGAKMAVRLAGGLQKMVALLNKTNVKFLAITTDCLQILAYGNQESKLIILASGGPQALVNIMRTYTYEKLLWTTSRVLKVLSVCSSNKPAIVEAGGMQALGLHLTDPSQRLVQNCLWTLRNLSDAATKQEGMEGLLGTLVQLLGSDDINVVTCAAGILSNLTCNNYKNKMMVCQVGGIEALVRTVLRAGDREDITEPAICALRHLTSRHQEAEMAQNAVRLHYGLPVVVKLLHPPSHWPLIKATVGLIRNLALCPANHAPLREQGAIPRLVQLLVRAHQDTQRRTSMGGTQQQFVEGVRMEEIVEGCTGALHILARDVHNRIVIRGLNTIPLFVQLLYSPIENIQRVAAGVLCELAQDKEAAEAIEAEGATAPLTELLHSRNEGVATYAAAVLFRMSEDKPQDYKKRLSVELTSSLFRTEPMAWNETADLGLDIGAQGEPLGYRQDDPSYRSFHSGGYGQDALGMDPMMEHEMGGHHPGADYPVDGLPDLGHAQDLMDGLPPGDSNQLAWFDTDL
Method: AlphaScreen Assays of β-Catenin and BCL9 Interaction. Experiments were performed in white opaque 384-well plates from PerkinElmer (Waltham, MA), and the samples were read on a Biotek Synergy 2 plate reader (Winooski, VT) with excitation at 680 nm and emission at 570 nm. The standard AlphaScreen protocol was used with a sensitivity setting of 200. All dilutions were made in 1x assay buffer containing 25 mM Hepes (pH 7.4), 100 mM NaCl, 0.01% Triton X-100 and 0.1% BSA to minimize nonspecific interactions.
For the β-catenin/BCL9 assay, 5 nM biotinylated BCL9, and 50 nM His6-tagged 8-catenin were incubated in assay buffer for 30 min. Different concentrations of the tested inhibitor were added and incubated in 20 μL assay buffer for another 1 h. All of the assay plates were covered and gently mixed on an orbital shaker. Donor and acceptor beads were then added to the plates to a final concentration of 10 μg/mL in 25 μL assay buffer. The mixture was incubated for 1 h before detection. The IC50 value was determined by nonlinear least-square analysis of GraphPad Prism 8.0. […] All of the experiments were performed in triplicate and carried out in the presence of 1% DMSO for small-molecule inhibitors. Each compound was assayed at least by three independent experiments. The results were expressed as mean±standard deviation.

SW480 = assay: MTS cell viability assay, SW480; format: cell-based; conditions: Homo sapiens, 72 h, Wnt/β-catenin hyperactive, mean ± SD (n = 3)
Method: (§1) MTS Cell Growth Inhibition Experiments. Colorectal cancer cells (SW480 and HCT116) and triple negative breast cancer cells (MDA-MB-231 and MDA-MB-468) were seeded in 96-well plates at 5×10^3 cells/well in DMEM with 10% FCS, maintained overnight at 37° C., and incubated with the tested compounds at various concentrations. Human mammary epithelial cell MCF10A were seeded in 96-well plates at 1×10^4 cells/well in MEGM (CC-3150, Lonza) with 100 ng/mL cholera toxin, maintained overnight at 37° C., and incubated with the tested compounds at various concentrations. Cell viability was monitored after 72 h using a freshly prepared mixture of 1 part phenazine methosulfate (PMS, Sigma) solution (0.92 mg/mL) and 19 parts 3-(4,5-dimethylthiazol-2-yl)-5-(3-carboxymethoxyphenyl)-2-(4-sulfophenyl)-2H-tetrazolium (MTS, Promega) solution (2 mg/mL). Cells were incubated in 10 μL of this solution at 37° C. for 3 h, and A490 was measured. […] Experiments were performed in triplicate.

MCF10A = assay: MTS cell viability assay, MCF10A; format: cell-based, human; conditions: for IC50: Homo sapiens, MCF-10A, 72 h, Wnt/β-catenin normal, mean ± SD (n = 3)
Method: as §1

HCT116 = assay: MTS cell viability assay, HCT116; format: cell-based; conditions: Homo sapiens, HCT-116; 72 h, Wnt/β-catenin hyperactive, mean ± SD (n = 3)
Method: as §1

[1] = system: Wnt/β-catenin signaling (TOPFlash luciferase reporter); assay: TOPFlash luciferase reporter assay in SW480 cells; format: cell-based; conditions: Homo sapiens, 24 h
Method: The suppressing effect of the inhibitors on transactivation of Wnt/β-catenin signaling was evaluated by the TOPFlash/FOPFlash luciferase reporter assay. In the TOPFlash assay, the luciferase reporter has three wild-type Tcf4 binding sites, while in the FOPFlash assay Tcf4 binding sites were mutated. These tandem Tcf binding sites controls the expression ratio of the firefly luciferase in TOPFlash/FOPFlash assays. The renilla luciferase reporter construct (pCMV-RL) was used as the internal control to normalize luciferase reporter signals and eliminate any possible systematic errors. […] This selectivity trend is consistent with that from MTS cell viability assays. Therefore, further cell-based studies were focused on compound 30.
Cell Transfection and Luciferase Assay. FuGENE6 (E269A, Promega) 96 well plate format was used for the transfection of SW480 cells according to the manufacturer's instruction. SW480 cells were co-transfected with 60 ng the TOPFlash or FOPFlash firefly luciferase reporter gene and 40 ng renilla luciferase pCMV-RL normalization reporter gene. Cells were cultured in DMEM and 10% FBS at 37° C. for 24 h, and different concentrations of inhibitors or DMSO was added. After 24 h, the luciferase reporter activity was measured using the Dual-Glo system (E2940, Promega). […]

MDA-MB-231 = assay: MTS cell viability assay, MDA-MB-231; format: cell-based; conditions: Homo sapiens, 72 h, Wnt/β-catenin hyperactive, mean ± SD (n = 3)
Method: as §1

MDA-MB-468 = assay: MTS cell viability assay, MDA-MB-468; format: cell-based; conditions: Homo sapiens, 72 h, Wnt/β-catenin hyperactive, mean ± SD (n = 3)
Method: as §1

[2] = system: Wnt/β-catenin hyperactive cancer cells; assay: MTS cell viability assays, cell panel; format: cell-based; conditions: Homo sapiens, MCF-10A; all tested cells incl. MCF10A; read-out: MTS IC50 on all tested cells
Method: as §1

Q: Which results are given for `COc1cccc(S(=O)(=O)NC(=O)C(C)(C)Oc2cccc(N3CCC[C@H](C(=O)N(Cc4ccc(-c5cccs5)cc4)C4CC4)C3)c2)c1` [Compound 28, (S)—N-Cyclopropyl-1-(3-((1-((3-methoxyphenyl)sulfonamido)-2-methyl-1-oxopropan-2-yl)oxy)phenyl)-N-(4-(thiophen-2-yl)benzyl) piperidine-3-carboxamide]?
A: AlphaScreen inhibitory activity in words (β-catenin/BCL9 PPI): slightly superior to R-isomer; IC50 (β-catenin/BCL9 PPI; Table 2, AlphaScreen, inhibitors 27-30 (R- and S-isomers), preliminary): ≤ 5 µM; Ki (β-catenin/BCL9 PPI; Table 2, AlphaScreen, inhibitors 27-30 (R- and S-isomers), preliminary, read-out: Ki): ≤ 5 µM; IC50 (SW480): 28.2 ± 1.08 µM; IC50 (MCF10A): 30.4 ± 2.47 µM; selectivity for hyperactive cancer cells over normal MCF10A cells (MCF10A; MTS IC50 MCF10A versus cancer cells): much less selective over MCF10A cells; IC50 (HCT116): 29.9 ± 1.99 µM; IC50 [1]: 7.8 µM; IC50 (MDA-MB-231): 19.8 ± 1.59 µM; IC50 (MDA-MB-468): 15.4 ± 2.49 µM

Q: For `CC(C)(C)OC(=O)C(C)(C)Oc1cccc(N2CCCC(C(=O)N(Cc3ccc(-c4cccs4)cc3)C3CC3)C2)c1` (centres unmarked) [Compound 17, tert-Butyl 2-(3-(3-(cyclopropyl(4-(thiophen-2-yl)benzyl)carbamoyl)piperidin-1-yl)phenoxy)-2-methylpropanoate], which Ki (β-catenin/BCL9 PPI; AlphaScreen competitive inhibition assay, read-out: Ki for disruption of the β-catenin/BCL9 PPI) is on record?
A: > 90 µM

Q: And the “AlphaScreen inhibitory activity in words” value (β-catenin/BCL9 PPI)?
A: significant potency loss

Q: What about the IC50 (β-catenin/BCL9 PPI; Table 1, AlphaScreen, inhibitors 16-26) of the same molecule?
A: > 100 µM

Q: What about the Ki (β-catenin/BCL9 PPI; Table 1, AlphaScreen, inhibitors 16-26, Ki derived from IC50, read-out: Ki) of the same molecule?
A: > 90 µM

Q: And the IC50 (SW480)?
A: > 200 µM

Q: What about the IC50 [2] of the same molecule?
A: > 200 µM

Q: And the IC50 (MCF10A)?
A: > 200 µM

Q: And the IC50 (HCT116)?
A: > 200 µM

Q: What about the IC50 (MDA-MB-231) of the same molecule?
A: > 200 µM

Q: What about the IC50 (MDA-MB-468) of the same molecule?
A: > 200 µM
